Results published in publication PMC9140716, “Light-Control over Casein Kinase 1δ Activity with Photopharmacology: A Clear Case for Arylazopyrazole-Based Inhibitors” (International Journal of Molecular Sciences, 2022).
pIC50: −log10 of the molar value. Where two headings read alike, the source gives them in different places.

Key:
[1] = Reductive stability (DTT), UPLC-MS after incubation in buffer; format: physicochemical; details: 10 µM, 0.5 mM DTT, 10 mM MgCl2, pH 7.4, 2 h at 30 °C
Procedure: (§1) Lastly, the chemical stability of the photoswitches was evaluated in the kinase assay buffer. To avoid the oxidation of the kinase substrate peptide, the buffer contains dithiothreitol (DTT) as a reducing agent. Therefore, we presumed that performing multiple switching cycles in this buffer would allow us to gain insight into both the photochemical- and chemical stability of the three photoswitches. […] We hypothesise that the instability of DK398 in the assay buffer was caused due to either poor solubility or interactions with buffer components, such as the BSA protein.
Reductive stability (DTT)
Figure S8. UV-traces (λ = 312 nm) of UPLC-MS measurements after incubation of DK518, DK398 and
DK557 in buffer (10 µM, 0.5 mM DTT, 10 mM MgCl2, pH 7.4) for 2h at 30 °C. Traces show the presence of […]

[2] = Reversible switching cycles in kinase assay buffer containing DTT ((photo)chemical stability); format: physicochemical; details: kinase assay buffer with 0.5 mM DTT, 365 nm / 445 nm irradiation
Procedure: as §1
Photochemical evaluation. UV-Vis absorption spectra were recorded on an Agilent 8453 UV-Visible spectrophotometer equipped with an irradiation set-up containing a 365 and 445 nm LED. Stock solutions of DK398, DK518, and DK557 were prepared in DMSO (2.0 mM) and were diluted 100-fold in kinase assay buffer (40 mM Tris-HCl, 10 mM MgCl2, 0.5 mM DTT, 0.1 mg/mL BSA, pH 7.4, final 1% DMSO) or DMSO for spectroscopic characterisation. Reversible switching cycles were performed in a kinase assay buffer to evaluate the (photo)chemical stability. All three compounds were irradiated using UV light (λmax = 365 nm) to perform trans-to-cis isomerisation and blue light (λmax = 445 nm) for the back-reaction. The irradiation time was adjusted to the compound until the corresponding PSS was achieved.
Figure 2 (a) Structures and irradiation-dependent interconversion of the trans and cis isomers of DK398, DK518, and DK557; (b) UV-Vis absorption spectra of DK398, DK518, and DK557 in kinase assay buffer (10–20 µM, 4.8% DMSO) in the thermally adapted (all trans) and irradiated forms; (c) isomer distribution in the photostationary state (pie charts). The pink region represents the percentage of cis-isomer in the PSD as determined by ^1H-NMR (DMSO-d6). […]

CK1δ [3] = biological target: T1, CK1δ (Homo sapiens, UniProt P48730); assay: In vitro kinase assay (ATP consumption, Kinase Glo), 'dark' and UV-irradiated 'light' samples; format: biochemical; details: for degree of CK1δ inhibition reached in dose-response curve: 'light' and/or 'dark' samples; for difference in activity (potency) between 'light' and 'dark' states: irradiated (365 nm) vs thermally adapted sample, 'light' more potent
Procedure: After evaluating the photochemical properties of the three photoswitches DK398, DK518, and DK557 in detail, an in vitro kinase activity assay was performed. In this assay, the inhibitory activity towards CK1δ of both dark (all-trans) and irradiated (cis-enriched) samples was evaluated to construct dose–response curves for both states. During the enzymatic reaction (2 h), samples were either kept in the dark or irradiated with UV light (λmax = 365 nm). UV light irradiation itself was confirmed to have no effect on CK1δ activity (Figure S9). After the enzymatic reaction, ATP consumption was measured to determine enzyme activity. The ATP consumption of the samples containing the photoswitchable inhibitors was compared to the ATP consumption of a DMSO control to assess the degree of enzyme inhibition.
In vitro kinase assay. Stock solutions (2.0 mM) of the photoswitchable LH846 inhibitors were prepared in DMSO and thermally adapted by heating to c.a. 100 °C for 1 min. Dilutions were made in DMSO to reach 21-fold concentrated solutions of the desired concentrations to be tested in the assay. The assays were performed on white, solid-bottom 384-well plates and electronic, hand-held Gilson pipettes were used. The total volume for the reaction was 10.5 µL. All solutions were applied to the well plate in a dark room to prevent ambient-light-induced photo-isomerisation. Firstly, a solution of CK1δ and substrate peptide RKKKAEpSVASLTSQCSYSS (Anaspec Fermont, CA, USA, custom made) in a kinase assay buffer was aliquoted into the bottom of the wells (9 µL). Next, the 21-fold concentrated solutions of the compound (0.5 μL, final 4.8% DMSO) was pipetted into the bottom of the wells. Lastly, a solution of ATP in water (50 µM, 1 μL) was pipetted into the upper corners of each well (final concentration 4.8 µM). Final concentrations of CK1δ and the substrate peptide were 2 ng/µL and 50 µM, respectively. The enzymatic reaction was started by spinning down the plate (1800× g, 2 min). By employing this method, all reactions were started at the same time, minimising variance between different samples. During the assay, ‘light’ samples were irradiated with UV light (λ = 365 nm, UV lamp Spectroline, ENB-280/FE, 1 × 8 Watt) for the full duration of the assay (2 h). The wells of ‘dark’ samples were carefully covered with an aluminium sticker. After the incubation period (2 h at 30 °C), 10 μL Kinase Glo® (Promega, Madison, WI, USA) was applied into the wells and the luminescent signal was recorded by a plate reader (BioTek Synergy H1). All measurements were carried out in triplicate. Enzyme activity was determined by comparing the ATP consumption of the samples containing the LH846-analogues to that of a DMSO control, set as 100% enzyme activity.

CK1δ [4] = biological target: T1, CK1δ; set-up: method as in PMID 21954091; details: parent inhibitor; read-out: IC50 of LH846 towards CK1δ; cited from earlier work
[5] = 'dark' (all-trans, thermally adapted) samples, 2 h at 30 °C, 4.8 µM ATP, read-out: 50 % inhibition: dark (absolute IC50)
[6] = 'light' (cis-enriched) samples irradiated with UV light 365 nm for the full 2 h, 30 °C, 4.8 µM ATP, read-out: 50 % inhibition: light (absolute IC50)

T1 sequence (P48730 whole entry): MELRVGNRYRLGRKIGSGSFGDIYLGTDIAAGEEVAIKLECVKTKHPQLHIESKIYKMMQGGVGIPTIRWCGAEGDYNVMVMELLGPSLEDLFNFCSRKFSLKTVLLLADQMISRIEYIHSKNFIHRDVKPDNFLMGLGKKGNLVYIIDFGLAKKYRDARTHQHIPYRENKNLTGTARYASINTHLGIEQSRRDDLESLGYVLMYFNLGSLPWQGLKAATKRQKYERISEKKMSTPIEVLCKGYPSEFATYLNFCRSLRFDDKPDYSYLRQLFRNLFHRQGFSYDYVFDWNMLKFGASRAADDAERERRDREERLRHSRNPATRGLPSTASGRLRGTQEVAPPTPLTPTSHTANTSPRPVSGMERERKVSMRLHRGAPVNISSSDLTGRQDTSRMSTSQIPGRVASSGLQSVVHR

stability over multiple switching cycles [2]	pIC50 (CK1δ [3]; [5])	pIC50 (CK1δ [3]; [6])	degree of CK1δ inhibition reached in dose-response curve (CK1δ [3])	difference in activity (potency) between 'light' and 'dark' states (CK1δ [3])	pIC50 (CK1δ [3]; both 'light' and 'dark' samples, read-out: IC50 values towards CK1δ)	SMILES	stability against reduction by DTT [1]	pIC50 (CK1δ [4])
poor stability	< 5.00	~6.00	incomplete inhibition	~10 fold	–	Cc1cc2sc(NC(=O)Cc3ccc(/N=N/c4ccccc4)cc3)nc2cc1Cl [DK398]	No reduction products (hydrazine or aniline) were observed	–
–	–	–	–	–	–	Cc1cc2sc(NC(=O)Cc3ccccc3)nc2cc1Cl [LH846]	–	6.54

SMILES	stability over multiple switching cycles [2]	pIC50 (CK1δ [3]; [5])	pIC50 (CK1δ [3]; [6])	degree of CK1δ inhibition reached in dose-response curve (CK1δ [3])	difference in activity (potency) between 'light' and 'dark' states (CK1δ [3])	pIC50 (CK1δ [3]; both 'light' and 'dark' samples, read-out: IC50 values towards CK1δ)	stability against reduction by DTT [1]	pIC50 (CK1δ [4])
Cc1cc2sc(NC(=O)Cc3cccc(/N=N/c4ccccc4)c3)nc2cc1Cl [DK518]	excellent stability	6.47	6.46	achieved complete enzyme inhibition	completely abolished the difference in activity	~6.46	No reduction products (hydrazine or aniline) were observed	–
Cc1cc2sc(NC(=O)Cn3nc(C)c(/N=N/c4ccccc4)c3C)nc2cc1Cl [DK557]	excellent stability	4.94	5.92	complete enzyme inhibition upon irradiation	~10 fold	–	No reduction products (hydrazine or aniline) were observed	–
